From paper PMC2864230 (Nature chemical biology, 2009) come the findings set out here.

For assay [1], the target named is T1, ERα (Homo sapiens, UniProt P03372).
T1 sequence (P03372 1-595): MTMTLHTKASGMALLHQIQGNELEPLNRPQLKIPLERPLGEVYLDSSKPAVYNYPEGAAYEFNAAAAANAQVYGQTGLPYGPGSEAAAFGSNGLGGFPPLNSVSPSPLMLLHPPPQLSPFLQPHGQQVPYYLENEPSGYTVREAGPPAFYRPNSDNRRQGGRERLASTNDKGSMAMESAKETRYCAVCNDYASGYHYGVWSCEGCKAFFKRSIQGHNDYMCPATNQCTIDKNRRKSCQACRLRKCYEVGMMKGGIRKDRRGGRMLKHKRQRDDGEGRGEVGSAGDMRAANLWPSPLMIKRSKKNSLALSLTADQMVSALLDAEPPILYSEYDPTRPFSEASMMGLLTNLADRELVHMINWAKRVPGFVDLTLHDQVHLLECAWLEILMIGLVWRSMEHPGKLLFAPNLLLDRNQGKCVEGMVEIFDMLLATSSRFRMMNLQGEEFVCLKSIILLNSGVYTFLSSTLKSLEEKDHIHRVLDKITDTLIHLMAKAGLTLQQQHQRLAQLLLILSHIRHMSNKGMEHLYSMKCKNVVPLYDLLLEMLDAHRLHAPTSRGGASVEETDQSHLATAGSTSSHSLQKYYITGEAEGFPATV
The assay can be described thus: Competitive binding with E2-Alexa633 in COS7 cells transfected with ERα-GFP.

For assay [2], the target named is T2, GPR30 (Homo sapiens, UniProt Q99527). The assay can be described thus: Intracellular calcium mobilization in indo1-AM-loaded SKBr3 cells. The assay is classed as cell-based. As to conditions: G15 1 μM. A general note: Calcium flux is commonly read through the fluorescence of an indicator in the cells.
T2 sequence (Q99527 whole entry): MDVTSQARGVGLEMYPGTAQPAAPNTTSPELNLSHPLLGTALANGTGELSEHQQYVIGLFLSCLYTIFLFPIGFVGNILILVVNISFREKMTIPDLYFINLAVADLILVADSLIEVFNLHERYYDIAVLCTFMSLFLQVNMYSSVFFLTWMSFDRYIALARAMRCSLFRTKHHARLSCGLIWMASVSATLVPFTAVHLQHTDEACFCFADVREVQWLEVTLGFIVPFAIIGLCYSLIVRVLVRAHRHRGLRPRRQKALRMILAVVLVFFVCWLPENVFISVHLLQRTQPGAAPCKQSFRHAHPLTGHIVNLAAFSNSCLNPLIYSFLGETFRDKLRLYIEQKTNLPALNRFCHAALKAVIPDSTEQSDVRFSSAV
Assay [3] deals with T2, GPR30. Briefly: PI3K activation. As to conditions: GPR30-transfected COS7 cells. Format: cell-based.
Assay [4] has as its target T1, ERα. The assay can be described thus: PI3K activation. As to conditions: ERα-transfected COS7 cells; concentrations 100-fold greater than required to inhibit GPR30. Format: cell-based.
Another assay deals with ERβ (Homo sapiens, UniProt Q92731). The assay can be described thus: PI3K activation. The assay is classed as cell-based. As to conditions: ERβ-transfected COS7 cells; concentrations 100-fold greater than required to inhibit GPR30.
Sequence of ERβ (Q92731 whole entry, species assumed): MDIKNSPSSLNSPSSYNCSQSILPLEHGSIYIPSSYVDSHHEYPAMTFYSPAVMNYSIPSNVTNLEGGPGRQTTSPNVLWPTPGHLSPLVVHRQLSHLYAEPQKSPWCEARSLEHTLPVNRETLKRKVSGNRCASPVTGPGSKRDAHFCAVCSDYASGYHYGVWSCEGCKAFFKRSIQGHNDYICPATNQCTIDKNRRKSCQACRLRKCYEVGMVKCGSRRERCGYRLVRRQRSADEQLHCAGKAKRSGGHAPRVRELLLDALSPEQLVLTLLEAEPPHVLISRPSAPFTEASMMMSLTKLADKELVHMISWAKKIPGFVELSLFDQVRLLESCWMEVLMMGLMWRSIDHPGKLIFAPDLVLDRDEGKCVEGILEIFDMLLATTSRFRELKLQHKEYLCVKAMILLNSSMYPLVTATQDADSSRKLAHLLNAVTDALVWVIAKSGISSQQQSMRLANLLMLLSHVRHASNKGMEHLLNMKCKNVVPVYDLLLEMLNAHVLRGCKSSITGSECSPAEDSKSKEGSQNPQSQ
Assay [5] deals with T2, GPR30. Briefly: PI3K activation. The assay is classed as cell-based. As to conditions: SKBr3 cells.
The test system of the next assay is uterine epithelia. Briefly: Mouse uterine estrogenicity assay. As to conditions: G15 plus E2 (0.74 nmol); dose-dependent, maximal at 10-fold molar excess of G15. The assay is classed as in vivo.
Another assay relates to adult male ICR mice. Briefly: Mouse depression assay. The assay is classed as in vivo. As to conditions: intraperitoneal.

Take `Brc1cc2c(cc1[C@@H]1Nc3ccccc3[C@@H]3C=CC[C@@H]31)OCO2` (racemic) [G15, 4-(6-Bromo-benzo[1,3]dioxol-5-yl)-3a,4,5,9b-tetrahydro-3H-cyclopenta[c]quinoline]: at ERα [1], the Ki (commonly a dissociation constant, usually derived from enzyme kinetics or from competition with a known ligand) was greater than 10 µM. The “mobilization of intracellular calcium by compound alone” value at GPR30 [2] (G-1 200 nM, E2 100 nM) is listed as “incapable of inducing a response”. Besides, on GPR30 [2] (then G-1 200 nM or E2 100 nM), the “effect of G15 exposure on subsequent calcium response to G-1 or estrogen” value is “substantially reduced the response”. On GPR30 [3], the “inhibition of G-1-mediated activation of PI3K” value is recorded as “capable of inhibiting” and the “inhibition of estrogen-mediated PI3K response” value was “effectively blocked”. For the same molecule, the “effect on estrogen-mediated PI3K response” value on ERα [4] was “no effect”. In addition, on ERβ, the “effect on estrogen-mediated PI3K response” value is listed as “no effect”. Further, the “inhibition of estrogen and G-1 stimulation of PI3K” value against GPR30 [5] is on record as “able to inhibit”. Besides, the “reduction of E2-induced uterine epithelial proliferation” value with uterine epithelia is on record as “approximately 50%”. Moreover, the “effect of G15 pretreatment on the G-1 effect on immobility time” value in the assay with adult male ICR mice (G15 10 nmol/mouse + G-1 1 nmol/mouse) is “significantly attenuated”. Further, the “effect of G15 pretreatment on the E2 effect on immobility time” value in the assay with adult male ICR mice (G15 25 nmol/mouse + soluble E2 5 mg/kg) was “significantly attenuated”.
